Where two headings read alike, the source gives them in different places.
Legend:
Format in all cases: in vivo
[1] = tested on: rat paw swelling induced by monosodium urate (MSU); assay: rat paw swelling model induced by monosodium urate (MSU); settings: for inhibition in vivo at 90 mg/kg / inhibition in vivo at 0.36 mg/kg / inhibition in vivo at 1.8 mg/kg / inhibition in vivo at 9 mg/kg / change in vivo at 90 mg/kg: Rattus norvegicus, po; for inhibition in vivo at 90 mg/kg / inhibition in vivo at 0.36 mg/kg / inhibition in vivo at 1.8 mg/kg / inhibition in vivo at 9 mg/kg: 1 h, read-out: Swelling inhibition rate; for inhibition in vivo at 0.36 mg/kg: dosage 0.36 mg/kg; for inhibition in vivo at 1.8 mg/kg: dosage 1.8 mg/kg; for inhibition in vivo at 9 mg/kg: dosage 9 mg/kg; for change in vivo at 90 mg/kg: read-out: Swelling degree; for Mean volume of paw after administration: 1 h after onset of inflammation (50 μL 2% MSU)
Source text: Gout is a disease unique to human, and gouty arthritis is an inflammatory reaction caused by the deposition of monosodium urate (MSU) in local joint tissues. Since purine metabolism pathways in some mammals such as mice and rabbits are different from those in humans, it is impossible to construct a gouty arthritis model by the method of interfering with purine metabolism disorders, so the most direct method for causing gouty arthritis is to directly inject MSU into the joint cavity of the model animal. The model is only used for simulating local joint inflammation of gout, is suitable for observation of local arthritis symptoms, is a common method for screening anti-inflammatory effects of gout drugs at present, and has the advantages of stability, easy operation and the like. (Reference: Li Na, Hua Long, and Yuan Hui. Research progress of gout animal models [J]. Medical theory and practice, 2016(24).
The anti-gout effect of the compound prepared in the above Example was detected by using a rat paw swelling model induced by monosodium urate (MSU), and the control sample was methylprednisolone.
Experimental method: MSU was used as an inflammatory agent, injected subcutaneously into the hind paws of rats to cause paw swelling, and then the volume of the paws was measured, and the swelling rates and swelling inhibition rates of the treatment group and the control group were compared. On the day of the experiment, the volume of right hind paw (ml) of each rat was measured firstly, and then after the onset of inflammation, the volume of right hind paw was measured so that the difference of volume of paw before and after inflammation was swelling degree, and the swelling inhibition rate of paw (swelling inhibition rate %=(C−T)/C*100%); C=swelling rate of the control group %, and T=swelling rate of the treatment group) was calculated. This method is one of the commonly used methods for screening anti-inflammatory effects of gout drugs, and the model is stable and easy to operate.
(2) One week before the subcutaneous injection of MSU into the feet and soles of the rats, the rats were given different doses of the test drugs, and the drugs were given by gavage once a day, for seven consecutive days. The circumference of the right hind paw was marked and measured before the last administration, and the average value of the two measurements was taken as the standard. 1 h after the last administration, animals in other groups were given 50 μL of 2% MSU in addition to the blank control group, and the paw circumference was measured 1 h after the onset of inflammation. […]

[2] = tested on: carrageenan-induced mouse paw swelling; assay: carrageenan-induced mouse paw swelling model; settings: for Circumference of the paw after administration: 180 min after onset of inflammation (0.5% carrageenan); for inhibition in vivo at 0.26 mg/kg / inhibition in vivo at 13 mg/kg / inhibition in vivo at 130 mg/kg / change in vivo at 130 mg/kg: Mus musculus, po, 3 h; for inhibition in vivo at 0.26 mg/kg: dosage 0.26 mg/kg; for inhibition in vivo at 0.26 mg/kg / inhibition in vivo at 13 mg/kg / inhibition in vivo at 130 mg/kg: read-out: Swelling inhibition rate; for inhibition in vivo at 13 mg/kg: dosage 13 mg/kg; for change in vivo at 130 mg/kg: read-out: Swelling degree
Procedure: The anti-inflammatory effects of the compounds prepared in the above Examples were detected using a carrageenan-induced mouse paw swelling model, and the control sample was methylprednisolone:
Carrageenan-induced mouse paw swelling model is a classical acute inflammation model commonly used for evaluating or screening anti-inflammatory effects of drugs. When carrageenan is injected into the paw of mice, a series of reactions similar to human acute inflammation such as local capillary dilatation, increased vascular permeability, exudation and edema can be caused, so the model can be widely used in the evaluation of new drugs.
Reference for experimental method: Yang Huan, Cheng Xiao, Wang Yuehua, Du Guanhua. Effects of esculin on the swelling of toes and inflammation induced by carrageenan in mice [J]. Chinese Journal of New Drugs, 2016(25):2322.
On the day of the experiment, the circumference of right hind paw (cm) of each mouse was measured firstly, and then, after the onset of inflammation, the circumference of right hind paw was measured so that the difference of the circumferences of the paws before and after inflammation was swelling degree, and the swelling inhibition rate of paw (swelling inhibition rate %=(C−T)/C*100%); C=swelling rate of the control group %, and T=swelling rate of the treatment group) was calculated.
(2) Gavage administration was performed once a day for seven consecutive days. The circumference of the right hind paw was marked and measured before the last administration, and the average value of the two measurements was taken as the standard. 30 min after the last administration, 20 μL/mice of 0.5% carrageenan was injected into the right hind ankle of the mice to induce inflammation, and the circumference of paw was measured 180 min after the onset of inflammation. […]

ICR mice = settings: p.o.
Procedure: The experiment was designed according to the “Technical Guideline for Acute Toxicity Test of Chemical Drugs” issued by the State Food and Drug Administration in March 2005. The doses administered were 4 g/kg, 4.91 g/kg, 6.14 g/kg, 7.68 g/kg, 9.6 g/kg, 12 g/kg, and 15 g/kg (the dose could be adjusted according to the actual test results), 12 ICR mice per dose group. If the administration volume is greater than 0.5 ml, it is better to perform the drug administration in two or more times (Note: according to the national standard GB 15193.3-2014, if multiple drug administrations are required, the time interval should be 4 h to 6 h each time, and the patient should be fasted on the day before drug administration).

[3] = SD rats, 90 mg/kg by gavage once a day for seven days, 1 h after onset of inflammation
[4] = rat, MSU-induced paw swelling, dosage 90 mg/kg
[5] = SD rats, 90 mg/kg by gavage once a day for seven days
[6] = ICR mice, 130 mg/kg by gavage once a day for seven days, 180 min after onset of inflammation
[7] = ICR mice, 130 mg/kg by gavage once a day for seven days
[8] = mouse, carrageenan-induced paw swelling
[9] = mouse, carrageenan-induced paw swelling, dosage 130 mg/kg

Structure (SMILES) | inhibition in vivo at 90 mg/kg [1, 3] | inhibition in vivo at 0.36 mg/kg ([1]; rat, MSU-induced paw swelling) | inhibition in vivo at 1.8 mg/kg ([1]; rat, MSU-induced paw swelling) | inhibition in vivo at 9 mg/kg ([1]; rat, MSU-induced paw swelling) | inhibition in vivo at 90 mg/kg [1, 4] | change in vivo at 90 mg/kg [1, 3] | Swelling value [1, 3] | Mean volume of paw after administration [1, 5] | Swelling value [2, 6] | Circumference of the paw after administration [2, 7] | inhibition in vivo at 0.26 mg/kg [2, 8] | inhibition in vivo at 13 mg/kg [2, 8] | inhibition in vivo at 130 mg/kg [2, 9] | change in vivo at 130 mg/kg [2, 6] | inhibition in vivo at 130 mg/kg [2, 6] | Mortality (ICR mice; 4 g/kg) | Mortality (ICR mice; 4.91 g/kg) | Mortality (ICR mice; 6.14 g/kg) | Mortality (ICR mice; 7.68 g/kg) | Mortality (ICR mice; 9.6 g/kg) | other results
CC(=O)OC/C(=N\O)[C@@]1(O)CC[C@H]2[C@@H]3CCC4=CC(=NO)CC[C@]4(C)[C@H]3[C@@H](O)C[C@@]21C [Example 5, (2E)-2-((8S,9S,10R,11S,13S,14S,17R)-11,17-dihydroxy-3-(hydroxyimino)-10,13-dimethyl-2,3,6,7,8,9,10,11,12,13,14,15,16,17-tetrahydro-1H-cyclopentane[α]phenanthroyl)-2-(hydroxyimino)ethyl acetate] | 82.1% | 23.4% | 35.3% | 56.3% | 80.1% | 59% | 0.72 mL | 1.94 mL | 0.04 cm | 1.52 cm | 13.5% | 56.8% | 88.1% | 2.7% | 86% | 0/12 | 0/12 | 0/12 | 0/12 | 1/12 | Mortality (ICR mice; 12 g/kg): 2/12; Mortality (ICR mice; 15 g/kg): 4/12
CC1(C)O[C@@H]2C[C@H]3[C@@H]4C[C@H](F)C5=CC(=NO)C=C[C@]5(C)[C@@]4(F)[C@@H](O)C[C@]3(C)[C@]2(/C(CO)=N/O)O1 [Example 8, (2S,6aS,6bR,7S,8aS,8bR,11aR,12aS,12bS)-2,6b-difluoro-7-hydroxy-8b-((E)-2-hydroxy-1-(hydroxyimino)ethyl)-6a,8a,10,10-tetramethyl-1,2,6a,6b,7,8,8a,8b,11a,12,12a,12b-dodecahydro-4H-naphtho[2′,1′:4,5]indeno[1,2-d][1,3]dioxol-4-one oxime] | 91.8% | 17.2% | 32.1% | 41.2% | 93.5% | 26.8% | 0.33 mL | 1.56 mL | 0.02 cm | 1.49 cm | 24.5% | 46.8% | 93.2% | 1.36% | 93% | 0/12 | 0/12 | 0/12 | 0/12 | 0/12 | Mortality (ICR mice; 12 g/kg): 0/12; Mortality (ICR mice; 15 g/kg): 1/12
C[C@@H]1C[C@H]2[C@@H]3CCC4=CC(=NO)C=C[C@]4(C)[C@H]3[C@@H](O)C[C@]2(C)[C@H]1/C(CO)=N/O [Example 10] | 68.9% | 9.21% | 32.1% | 51.2% | 65.2% | 102% | 1.24 mL | 2.45 mL | 0.11 cm | 1.58 cm | 8.12% | 30.9% | 62.4% | 7.48% | 61.3% | 0/12 | 0/12 | 1/12 | 1/12 | 3/12 | Mortality (ICR mice; 12 g/kg): 4/12; Mortality (ICR mice; 15 g/kg): 5/12
CCON=C1C=C[C@@]2(C)C(=C1)CC[C@@H]1[C@@H]2[C@@H](O)C[C@@]2(C)[C@H]1C[C@@H](C)[C@]2(O)/C(COC(C)=O)=N/OCC [Example 11] | 64.7% | 10.2% | 35.2% | 49% | 67.5% | 116% | 1.42 mL | 2.64 mL | 0.1 cm | 1.53 cm | 15.5% | 35.8% | 68.1% | 6.99% | 63.9% | 0/12 | 0/12 | 0/12 | 0/12 | 0/12 | Mortality (ICR mice; 12 g/kg): 0/12; Mortality (ICR mice; 15 g/kg): 0/12
CCC(=O)OC/C(=N\O)[C@@]1(O)[C@H](O)C[C@H]2[C@@H]3CCC4=CC(=NO)C=C[C@]4(C)[C@@]3(F)[C@@H](O)C[C@@]21C [Example 14, (2E)-2-((8S,9R,10S,11S,13S,14S,16R,17R)-9-fluoro-11,16,17-trihydroxy (hydroxyimino)-10,13-dimethyl-6,7,8,9,10,11,12,13,14,15,16,17-dodecahydro-3H-cyclopentane[α]phenanthrene-17-yl)-2-(hydroxyimino)ethyl propionate] | 85.6% | 5.23% | 34.2% | 65.2% | 86.3% | 47.5% | 0.56 mL | 1.74 mL | 0.03 cm | 1.45 cm | 20.3% | 49.2% | 92.1% | 2.11% | 89.1% | 0/12 | 0/12 | 0/12 | 0/12 | 1/12 | Mortality (ICR mice; 12 g/kg): 1/12; Mortality (ICR mice; 15 g/kg): 3/12

From patent publication US20230159583A1, “COMPOUND FOR TREATING GOUT, PREPARATION METHOD THEREFOR, AND USE THEREOF” (Huazhong Pharmaceutical Co., Ltd., priority 2020, published 2023)
